Data published in patent publication US12415781B2, “Compounds with biguanidyl radical and uses thereof” (INSTITUT CURIE, priority 2018, dated 2025).
Where a name gives a salt, the structure may show the parent alone.

Tests used:
[1] = tested on: triple negative human breast cancer cells and circulating tumor cells (CTC) from patients with colorectal cancer; assay: Cell viability (CellTiter-Blue), dose response of cancer cells, FIG. 1B; assay type: cell-based; conditions: 72 h, cell line not named
Description: (§1) FIG. 1. […] (FIG. 1B) Dose response viability curves of cancer cells treated as indicated for 72 h. […] (FIG. 1D) Dose response viability curves of HMLER cells in epithelial and mesenchymal states treated as indicated for 72 h. Data points and error bars, mean values and s.d. of three independent biological replicates.
(§2) Cell culture. Dulbecco's Phosphate-Buffered Saline (14190-094, 500 mL, Gibco), Dulbecco's Modified Eagle Medium (DMEM)/F12 (31331-028, 500 mL, Gibco), DMEM GlutaMAX™ (61965059, Thermo Fisher Scientific), Fetal Bovine Serum (FBS, 10270-106, Gibco), Hydrocortisone (H0888, Sigma Aldrich), Insulin (I0516 or I9278, Sigma Aldrich), PEN-STREP (DE17-602E, BioWhittaker, Lonza), Puromycin dihydrochloride (A11138-02, Life Technologies). MCF-7 (ATCC®, HTB-22™), MDA-MB-231 (ATCC®, HTB-26™), MDA-MB-468 (ATCC®, HTB-132™) and circulating tumor cells were grown in DMEM supplemented with 10% FBS and 1% penicillin (100 U/mL), streptomycin (100 μg/mL) and incubated at 37° C. with 5% CO2. To induce EMT, cells were treated with epidermal growth factor EGF (100 ng/ml) (Miltenyi Biotec) for 72 h. The human mammary epithelial cell line infected with a retrovirus carrying hTERT, SV40 and the oncogenic allele HrasV12, named HMLER cells were a generous gift from A. Puisieux. HMLER cells were cultured in DMEM/F12 supplemented with 10% FBS, 10 μg/mL insulin, 0.5 μg/mL hydrocortisone, 10 ng/ml hEGF, and 0.5 μg/mL puromycin. A mycoplasma test was performed using PCR mycoplasma detection kit (G238, Applied Biological Materials).
(§3) Cell viability. Cell viability was carried out by plating 1000 cells/well in 96-well plates using CellTiter-Blue® viability assay according to the manufacturer's protocol. Cells were treated as indicated for 72 h. CellTiter-Blue® reagent (G8081, Promega) was added after 72 h treatment and cells were incubated for 1-2 h before recording fluorescence intensities (ex. 560/20 nm; em. 590/10 nm) using a Perkin Elmer Wallac 1420 Victor2 Microplate Reader.

[2] = tested on: MDA-MB-468 triple negative breast cancer cells; assay: Cell viability (CellTiter-Blue), epithelial and mesenchymal (EGF-induced) states, FIG. 1C; assay type: cell-based, human; conditions: MDA-MB-468 epithelial/mesenchymal (EGF) states, condition not named
Description: as §1, §2, §3

MDA-MB-468 cells [3] = assay: Mitochondrial copper(II) levels, turn-off fluorescent probe (microscopy, flow cytometry); assay type: cell-based, human; conditions: 48 h, reduction in fluorescence, metformin 12 mM, metforminyn 2 mM unless stated otherwise
Description: FIG. 2. […] Scale bar, 10 μm. […] Scale bar, 10 μm.
(§4) Flow cytometry. Metal-specific probes were synthesized as previously described.
Copper and iron levels. Cells were incubated with the relevant probes as described in Reagents section. Cells were then analyzed either by fluorescence microscopy or flow cytometry as described in Cell Imaging and Flow Cytometry sections.

MDA-MB-468 cells [4] = assay: Mitochondrial ROS levels (MitoSOX Red, flow cytometry); assay type: cell-based, human
Description: ROS levels. Mitochondrial ROS was measured using MitoSOX™ Red Mitochondrial Superoxide Indicator (M36008, Thermo Fisher Scientific) according to the manufacturer's protocol.

MDA-MB-468 cells [5] = assay: Mitochondrial membrane potential (MitoProbe JC-1); assay type: cell-based, human
Description: Mitochondrial membrane potential. Measurements were performed using the MitoProbe™ JC-1 assay kit (M34152, Thermo Fischer Scientific) according to the manufacturer's protocol. In brief, cells were treated with 2 μM JC-1 or CCCP ([…]) control for the indicated time.

MDA-MB-468 cells [6] = assay: Mitochondrial morphology; assay type: cell-based, human
MDA-MB-468 cells [7] = assay: Cell death (Annexin V-FITC/PI) with cell death inhibitors; assay type: cell-based, human; conditions: Z-VAD-FMK 50 μM, ferrostatin-1 10 μM, necrostatin-1 20 μM, 72 h; not rescued by ferrostatin-1 and necrostatin-1
Description: Cell death. […] Data were analyzed by a LSRFortessaTM flow cytometer (BD Biosciences, San Jose, CA) and processed using Cell Quest (BD Biosciences) and FlowJo (FLOWJO, LLC) software.

MDA-MB-468 cells [8] = assay: EGF-induced epithelial-to-mesenchymal transition (E-cadherin/phalloidin imaging, Western blot of markers, CD44/CD24 flow cytometry); assay type: cell-based, human; conditions: 72 h; E-cadherin, phalloidin, fibronectin, vimentin, Zeb1, Snail, Slug, CD44high/CD24low proportion
Description: as §2
Western blotting. […] Extracts were incubated at 37° C. for 1 h.
as §4

[9] = Cyclic voltammetry of iron solutions
[10] = Cyclic voltammetry of a copper(I) solution; conditions: metformin 2 mol equiv, quasi-reversible couples
Description: Cyclic voltammetry. Cyclic voltammetry experiments were performed with a three-electrode cell under argon. Saturated Calomel Electrode (SCE) was used as reference, a steady Glassy Carbon (GC) electrode of diameter 3 mm was selected as working electrode and a Platinum wire as counterelectrode. All cyclic voltammograms were recorded at RT with a μ-autolab III from Metrohm using Nova software with a scan rate of 0.5 V/s. MeCN was used as a degassed HPLC grade from Carlo Erba. Water was mQ H2O. Solutions with copper were prepared with 0.3 M nBu4NBF4 (180 mg) in MeCN (1.8 mL) and 200 μl of a 20 mM Cu(MeCN)4PF6 stock solution in MeCN (7.4 mg/mL).

SMILES: CN(C)C(=N)NC(=N)N [metformin, 1,1-Dimethylbiguanide hydrochloride]
- IC50 ([1]; Homo sapiens, 1st of four values listed 'respectively'): 12.1 mM
- IC50 ([1]; Homo sapiens, 2nd of four values listed 'respectively'): 15.1 mM
- IC50 ([1]; Homo sapiens, 3rd of four values listed 'respectively'): 7.7 mM
- IC50 ([1]; Homo sapiens, 4th of four values listed 'respectively'): 10.9 mM
- IC50 ([2]; Homo sapiens, MDA-MB-468, 72 h, 1st of four values listed): 24.3 mM
- IC50 ([2]; Homo sapiens, MDA-MB-468, 72 h, 2nd of four values listed): 12.1 mM
- IC50 ([2]; Homo sapiens, MDA-MB-468, 72 h, 3rd of four values listed): 5.5 mM
- IC50 ([2]; Homo sapiens, MDA-MB-468, 72 h, 4th of four values listed): 2.3 mM
- mitochondrial levels of copper(II) (MDA-MB-468 cells [3]): increased levels of copper(II)
- mitochondrial reactive oxygen species (ROS) levels (MDA-MB-468 cells [4]): increased levels of reactive oxygen species (ROS)
- mitochondrial membrane potential (MDA-MB-468 cells [5]): reduction of mitochondrial membrane potentials
- mitochondrial morphology (MDA-MB-468 cells [6]): alteration of mitochondrial morphology
- rescue of compound-induced cell death by inhibitors (MDA-MB-468 cells [7]): rescued by the caspase 3 inhibitor Z-VAD-FMK
- induction of EMT using EGF (MDA-MB-468 cells [8]): prevented
- redox properties of iron (cyclic voltammetry) [9]: altered the redox properties of this metal
- redox properties of copper (cyclic voltammetry) [10]: altered the redox properties of copper

SMILES: C#CCCN(C)C(=N)NC(=N)N [metforminyn]
- IC50 ([1]; 1st of four values listed 'respectively'): 2.5 mM
- IC50 ([1]; 2nd of four values listed 'respectively'): 4.7 mM
- IC50 ([1]; 3rd of four values listed 'respectively'): 2.8 mM
- IC50 ([1]; 4th of four values listed 'respectively'): 3.5 mM
- IC50 ([2]; 72 h, 1st of four values listed): 12.6 mM
- IC50 ([2]; 72 h, 2nd of four values listed): 5.2 mM
- IC50 ([2]; 72 h, 3rd of four values listed): 0.8 mM
- IC50 ([2]; 72 h, 4th of four values listed): 0.9 mM
- mitochondrial levels of copper(II) (MDA-MB-468 cells [3]): increased levels of copper(II)
- mitochondrial reactive oxygen species (ROS) levels (MDA-MB-468 cells [4]): increased levels of reactive oxygen species (ROS)
- mitochondrial membrane potential (MDA-MB-468 cells [5]): reduction of mitochondrial membrane potentials
- mitochondrial morphology (MDA-MB-468 cells [6]): alteration of mitochondrial morphology
- rescue of compound-induced cell death by inhibitors (MDA-MB-468 cells [7]): rescued by the caspase 3 inhibitor Z-VAD-FMK
- induction of EMT using EGF (MDA-MB-468 cells [8]): prevented
